The values below are quoted from earlier work in patent publication US20050249799A1, “Polymeric drug delivery system for hydrophobic drugs” (Spherics, Inc., priority 2004, published 2005).

Read-outs that look alike come from different tables or passages of the source.

Experiment in data set [1]: not given
The source holds these as a separate data set.

As for `Nc1nc2c(ncn2COCCO)c(=O)[nH]1` [Acyclovir, 2-amino-1,9-dihydro-9-[(2-hydroxyethoxy)methyl]-6H-purin-6-one], under “200 mg dose given every 4 hours”, the absolute bioavailability was 20%.
Broadly, the bioavailability is dose-corrected exposure relative to a reference, in per cent. As for `NC(=O)N1c2ccccc2C=Cc2ccccc21` [Carbamazepine, 5H-dibenz[b,f]azepine-5-carboxamide], the “time to peak plasma concentrations” value (oral) is 4 to 24 h. In addition, the bioavailability (tablet form) was 89%. Also, the solubility in water result in data set [1] was “practically insoluble”.
What is called half-life is the time in which the quantity being followed falls by half. Regarding `C#C[C@]1(O)CC[C@H]2[C@@H]3CCC4=Cc5oncc5C[C@]4(C)[C@H]3CC[C@@]21C` [Danazol, 17a-Pregna-2,4-dien-20-yno[2,3-d]-isoxazol-17-ol], the half-life (in vivo) was 4 to 5 h. Under “oral”, the “increase in plasma concentration on doubling the dose” value is reported as 30-40% and the “time to peak plasma concentrations” value is at most 2 h.
In the case of `CCC(C)n1ncn(-c2ccc(N3CCN(c4ccc(OCC5COC(Cn6cncn6)(c6ccc(Cl)cc6Cl)O5)cc4)CC3)cc2)c1=O` (centres unmarked) [itraconazole, Itraconazole], the bioavailability (oral capsule) is given as 55%.
